The values below come from patent publication US5047404A, “Chemical compounds” (Smith Kline & French Laboratories, Ltd., priority 1988, dated 1991).

Test [1] addresses calmodulin insensitive cyclic GMP phosphodiesterase (Homo sapiens, UniProt O76074). As to the kind of experiment: Phosphodiesterase activity: inhibition of calmodulin insensitive cyclic GMP phosphodiesterase. The format is biochemical. To be noted: procedure of European Patent Application No. 293063; read-out: IC50 (concentration of inhibitor required for 50% inhibition of enzyme activity).

Test [2] relates to hindquarter vascular resistance. Description: Vasodilatation in vivo: hindquarter blood flow, perfused hind quarters. On the set-up: species or system rats (male Wistar). To be noted: anaesthetised rats; bolus i.v., 10 μmol/kg. On the procedure:
Male Wistar rats (300 g) were anaesthetised with a sodium 5-ethyl-5-(I-methylpropyl)-2-thiobarbiturate/sodium pentobarbitone mixture i.p. (62.5 and 22.5 mg/kg respectively). The trachea was cannulated and the rats breathed spontaneously air enriched with O2 (5 ml/min). Blood pressure was recorded from a carotid artery and a jugular vein was cannulated for the administration of compounds. The temperature of the animal was maintained at 37° C. by the use of an electric blanket. […] The perfusion circuit was primed with 5% bovine serum albumin dissolved in 0.9% sodium chloride solution, pH adjusted to 7.4. Initially the pump rate was set between 10 and 15 ml/min to match the hind quarter perfusion pressure to that of the systemic circulation. Once set, the pressure remained unaltered for the rest of the experiment. A change in the speed of the pump (equivalent to hindquarter blood flow) was used to assess the changes in hindquarter vascular resistance.

In test [3] the test system is ovalbumen-induced bronchoconstrictor response. As to the kind of experiment: Anti-allergic activity: ovalbumen-induced bronchoconstrictor response in sensitised guinea-pigs. The following applies: dose 28 μmol/kg i.v. bolus, ovalbumen 1 mg.kg^-1 i.v. challenge 30 min after drug. Type of test: in vivo, guinea-pigs (male Duncan Hartley). On the procedure: Male Duncan Hartley guinea-pigs (250-300 g) were sensitised to ovalbumen by i.p. injection of 2 ml of 50 mg.ml^-1 i.p. and 0.2 ml s.c. Three weeks later they were anaesthetised with 60 mg.kg^-1 sodium pentabarbitone. The trachea was cannulated and the animal respired at a rate of 40 breaths per minute and at an initial tracheal inflation pressure of 16 mmHg. Tracheal inflation pressure was measured by a transducer connected to a side arm of the respiration circuit. The carotid artery was cannulated for the measurement of blood pressure and the signal was used to trigger an instantaneous rate meter. A jugular vein was cannulated for the administration of drug and allergen. After surgery the animals were allowed to stabilise and the drug was administered i.v. as a bolus. Following this, ovalbumen 1 mg.kg^-1 was injected i.v. as the antigen challenge either 2, 15 or 30 minutes following drug treatment and the peak bronchoconstrictor response recorded. For the control group ovalbumen only was given. One ovalbumen challenge per guinea-pig was used and n=6 for each time point. The percentage increase in tracheal inflation pressure was calculated. The following results indicating an anti-allergic activity were obtained.

For the molecule `CCCOc1ccccc1-c1nc2[nH]c(=O)c(=O)[nH]c2c(=O)[nH]1` [Example 7, 2-(2-Propoxyphenyl)pteridin-4,6,7(3H,5H,8H)-trione], the IC50 in test [1] fell in the range of 0.55 to 11.4 µM.
`CCCOc1ccccc1-c1nc2nnc(OC)nc2c(=O)[nH]1` [Example 11, 3-Methoxy-5,6-dihydro-5-oxo-7-(2-propoxyphenyl)pyrimido[5,4-e][1,2,4]triazine]: in test [1], the IC50 was 0.55 to 11.4 µM.
The same measure, in the same setting: to `CCCOc1ccccc1-c1nc2nnc(NC)nc2c(=O)[nH]1` [Example 10, 3-Methylamino-5,6-dihydro-5-oxo-7-(2-propoxyphenyl)pyrimido[5,4-e][1,2,4]triazine] belongs 0.55 to 11.4 µM.
With `CCCOc1ccccc1-c1nc2nc(SC)nnc2c(=O)[nH]1` [Example 12, 3-Methylthio-8-oxo 6-(2-propoxyphenyl)-7,8-dihydropyrimido[4,5-e][1,2,4]triazine], the “increase in hindquarter blood flow” value in test [2] was found to be 38%.
As for `CCCOc1ccccc1-c1nc2ncc(=O)[nH]c2c(=O)[nH]1` [Example 6, 2-(2-Propoxyphenyl)pteridin-4,6(3H,5H)-dione], the IC50 in test [1] lay within 0.55 to 11.4 µM.
With `CCCOc1ccccc1-c1nc2ncccc2c(=O)[nH]1` [Example 1, 2-(2-Propoxyphenyl)pyrido[2,3-d]pyrimid-4(3H)-one], in test [3], the “% Inhibition of Control Bronchoconstrictor Response 30 min after drug administration” value came out at 9%.
